# Primed or numbered codes have the meaning given here. No end group written: not given here. Ida = iminodiacetic acid linker, its two carboxyls bind the Lys side-chain amines of two peptides, giving a homodimer; Ida(3) = iminodiacetic acid linker, Lys side-chain amines bound to its two carboxyl groups; Ida(4) = iminodiacetic acid linker (dimerization linker bound to lysine side chain); Ida″ = iminodiacetic acid linker bound to the Lys side-chain amine, forming a dimer; ATA = not defined here
# System: HUVECs
# Assay type: cell-based
# Details: 48 h
# Protocol: HUVECs were routinely cultured to near confluency in EGM media (Clontech, Mountain View, California). The cells were trypsinized and plated in a 96-well plate at 5,000 cells per well per 100 μl EBM supplemented with 2% FCS and antibiotics. The cells were allowed to adhere to the plate for at least 12 hours. Then, bFGF at 10 ng/ml or VEGF at 5 ng/ml, and various concentrations of peptide, were added to the wells. The cells were cultured for 48 hours at 37 ° C. in a 5% CO2 atmosphere. Cell proliferation was determined using a bromo-deoxyuridine (BrdU) incorporation method as described by the manufacturer. Inhibition of cell proliferation was assessed by BrdU incorporation.
row,Compound,IC50
1,CC[C@H](C)[C@H](NC(=O)[C@H](C)NC(=O)[C@@H](NC(=O)[C@H](C)NC(=O)[C@H](CCC(N)=O)NC(=O)[C@H](CCCNC(=N)N)NC(=O)[C@H](CCCNC(=N)N)NC(=O)[C@H](CCCNC(=N)N)NC(=O)[C@H](CCCNC(=N)N)NC(=O)[C@H](CCCNC(=N)N)NC(C)=O)C(C)C)C(=O)N[C@@H](Cc1ccc(O)cc1)C(=O)N[C@@H](Cc1ccccc1)C(=O)N[C@@H](CCCCNC(=O)CN(CC(=O)NCCCC[C@H](NC(=O)[C@H](Cc1ccccc1)NC(=O)[C@H](Cc1ccc(O)cc1)NC(=O)[C@@H](NC(=O)[C@H](C)NC(=O)[C@@H](NC(=O)[C@H](C)NC(=O)[C@H](CCC(N)=O)NC(=O)[C@H](CCCNC(=N)N)NC(=O)[C@H](CCCNC(=N)N)NC(=O)[C@H](CCCNC(=N)N)NC(=O)[C@H](CCCNC(=N)N)NC(=O)[C@H](CCCNC(=N)N)NC(C)=O)C(C)C)[C@@H](C)CC)C(N)=O)C(=O)CCNC(=O)OC(C)(C)C)C(N)=O [Peptide 267],< 10 µM

# Same assay, conditions: HUVEC proliferation, bFGF at 10 ng/ml or VEGF at 5 ng/ml, 48 hours, BrdU incorporation; read-out: IC50 on HUVECs
row,Compound,IC50
1,439 (Ac-RRRRPQAVAIYFK(Ida(4)); not fully specified (C-terminus); also: homodimer via Ida linker at K13) [compound 439],< 10 µM
2,"404 (Ac-IRRRRQAVAIYFK(Ida(3))-NH2; also: homodimer via Ida linker on Lys13 side chain, Boc on Ida amine) [compound 404]",< 10 µM
3,435 (Ac-RRRRGQAVAIYFK(Ida(4)); not fully specified (C-terminus); also: homodimer via Ida linker at K13) [compound 435],< 10 µM
4,216 (Ac-ARRRRQAVAIIF; also: dimer: Phe C-termini joined via Lys linker) [compound 216],10 to 30 µM
5,"340 (Ac-RRHRHQHVRIYFK(Ida(3))-NH2; also: homodimer via Lys13 side chain, Ida linker (Ida amino group Boc)) [compound 340]",< 10 µM
6,"377 (Ac-ARRRRQRVAIMFK-NH2; not fully specified (residue 13); also: homodimer via Ida linker on Lys13 side chain, Boc on Ida amine) [compound 377]",< 10 µM
7,KTKRKRKKQRVKIAYAAIFVQNM [compound 48],> 30 µM
8,307 (Ac-RRRRRQAVRK(Ida)IFV; also: homodimer via Ida linker on Lys10 side chain) [compound 307],< 10 µM
9,AAKRKRKKQRVKIAYEEIFVQNM [compound 72],10 to 30 µM
10,"464 (Ac-ARRERQAVAIYFK(Ida(3)); not fully specified (C-terminus); also: homodimer via Ida linker on Lys side chains, linker at 13 via Ida, other end not in the chain) [compound 464]",< 10 µM
11,455 (Ac-TRRRRQAVAIVFK-NH2; not fully specified (residue 13); also: homodimer via Ida linker at K13) [compound 455],< 10 µM
12,497 (Ac-PRLRRQAVAIYFK(Ida″); not fully specified (C-terminus); also: homodimer via Ida linker on Lys13 side chain) [compound 497],10 to 30 µM
13,221 (Ac-RRRRAQAVAIIF; also: dimer: Phe C-termini joined via Lys linker) [compound 221],< 10 µM
14,"399 (Ac-ARRRRQAVRIYFK; not fully specified (residue 13, C-terminus); also: homotrimer via ATA linker at Lys13 side chain) [compound 399]",< 10 µM
15,299 (Ac-RRRRRQAVRIGIGFK-NH2; also: homodimer: Lys15 side chain bound to Ida linker) [compound 299],< 10 µM
16,"202 (Ac-RRAARQRVRIIF; also: dimer: C-terminal Phe bound to an amino group of a Lys linker, 2 chains per Lys) [compound 202]",< 10 µM
17,421 (Ac-RRRRRQAVAIKF; not fully specified (residue 11); also: homodimer of residues 1-12 via Ida linker on K11 side chain) [compound 421],< 10 µM

row,Compound,IC50
1,225 (Ac-ARRRRQRVAINFK; also: homodimer via Ida linker on side chain of Lys13) [compound 225],< 10 µM
2,457 (Ac-PRRRRQAVAIYFK(ATA); reading uncertain; also: homotrimer via Ata linker on Lys13 side chain) [compound 457],> 30 µM
3,330 (XRRHRQHVRIYFK; not fully specified; Xaa = Acylated Histidine; The side chain of Lysine at position 13 is covalently bound to an Ida linker forming a homodimer of residues 1 through 13.) [compound 330],< 10 µM
4,274 (Ac-RARRRQAVAIWFK-NH2; not fully specified (residue 13); also: homodimer via Ida linker on Lys13 side chain) [compound 274],< 10 µM
5,"359 (Ac-RRRHHQHVRIYFK(Ida(3))-NH2; also: homodimer via Ida linker on Lys13 side chain, Boc on Ida amine) [compound 359]",< 10 µM
6,363 (Ac-ARRRRQRVAWYFK-NH2; not fully specified (residue 13); also: homodimer of residues 1-13 via Ida linker on K13 side chain) [compound 363],< 10 µM
7,265 (Ac-RRRRRQAVAIGFK; not fully specified (C-terminus); also: homodimer: side chain of Lys13 bound to an Ida linker) [compound 265],< 10 µM
8,239 (Ac-RHRRRQRVHIIF; also: dimer via C-terminal Phe to Lys linker) [compound 239],< 10 µM
9,483 (Ac-QRRRRQAVAIKF; not fully specified (residue 11); also: homodimer via Ida linker on Lys11 side chain) [compound 483],< 10 µM
10,KTKAKRKKQRVKIIFVQNM [compound 120],< 10 µM
11,454 (Ac-SRRRRQAVAIVFK-NH2; not fully specified (residue 13); also: homodimer via Ida linker at K13) [compound 454],< 10 µM
12,280 (Ac-RRRRAQAVAIYFK-NH2; not fully specified (residue 13); also: homodimer via Ida linker on Lys13 side chain) [compound 280],< 10 µM
13,465 (Ac-ARRQRQAVAIYFK(Ida(3)); not fully specified (C-terminus); also: homodimer via Ida linker on Lys13 side chain) [compound 465],< 10 µM
14,"463 (Ac-ARRARQAVAIYFK(Ida(3)); not fully specified (C-terminus); also: homodimer via Ida linker on Lys side chains, linker at 13 via Ida, other end not in the chain) [compound 463]",< 10 µM
15,KTKRKRKKQRVKIAYEEIFVKNM [compound 5],< 10 µM
16,244 (Ac-RRRHRQHVRIIF; also: homodimer: C-termini of two chains bound to the two amines of a Lys linker) [compound 244],< 10 µM
